Results reported in ChEMBL document CHEMBL3856264, “Discovery of novel 2',4'-dimethyl-[4,5'-bithiazol]-2-yl amino derivatives as orally bioavailable TRPV4 antagonists for the treatment of pain: Part 1” (Bioorg Med Chem Lett, 2016).
In brackets after ≈: the same amount, converted by molar mass.

Legend:
[1] = Stability in human liver microsomes assessed as compound remaining after 30 mins in presence or absence of NADPH generating system at 37 degC; assay type: ADME, microsome; conditions: read-out: Stability
[2] = target: T1, Transient receptor potential cation channel subfamily V member 4 (Homo sapiens, UniProt Q9HBA0); test: Antagonist activity at human recombinant TRPV4 expressed in CHO-K1 cells assessed as blockade of 1000 nM 4alphaPDD-induced calcium mobilization by FLIPR assay; assay type: cell-based
T1 sequence (Q9HBA0 whole entry): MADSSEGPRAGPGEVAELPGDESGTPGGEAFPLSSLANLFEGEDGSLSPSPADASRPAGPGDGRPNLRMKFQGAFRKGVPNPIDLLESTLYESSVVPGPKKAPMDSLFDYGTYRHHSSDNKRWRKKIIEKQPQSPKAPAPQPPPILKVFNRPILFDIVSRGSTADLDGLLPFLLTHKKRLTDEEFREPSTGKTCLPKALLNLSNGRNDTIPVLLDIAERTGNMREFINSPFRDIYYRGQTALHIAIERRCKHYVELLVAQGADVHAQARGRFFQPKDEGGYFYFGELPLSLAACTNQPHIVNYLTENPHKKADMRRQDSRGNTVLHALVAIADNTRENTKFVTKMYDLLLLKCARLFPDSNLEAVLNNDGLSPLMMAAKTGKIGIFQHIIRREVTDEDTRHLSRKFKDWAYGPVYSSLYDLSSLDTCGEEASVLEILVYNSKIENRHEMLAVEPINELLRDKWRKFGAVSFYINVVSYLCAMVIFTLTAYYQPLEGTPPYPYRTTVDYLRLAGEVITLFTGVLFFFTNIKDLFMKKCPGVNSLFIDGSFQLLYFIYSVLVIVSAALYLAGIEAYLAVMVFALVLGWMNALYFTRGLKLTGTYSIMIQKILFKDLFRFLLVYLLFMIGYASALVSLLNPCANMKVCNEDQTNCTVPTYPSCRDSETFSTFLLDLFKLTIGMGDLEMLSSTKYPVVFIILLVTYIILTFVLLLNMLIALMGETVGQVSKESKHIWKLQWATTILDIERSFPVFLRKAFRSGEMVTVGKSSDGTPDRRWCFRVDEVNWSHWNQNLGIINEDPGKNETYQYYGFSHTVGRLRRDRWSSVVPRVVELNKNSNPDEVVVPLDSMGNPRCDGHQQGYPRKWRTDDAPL

[3] = Aqueous solubility of compound in sodium phosphate buffer containing 1% DMSO at pH 6.8; assay type: physicochemical
[4] = Total clearance in guinea pig at 0.5 mg/kg, iv; assay type: ADME, organism-based, Cavia porcellus; conditions: in vivo
Cavia porcellus [5] = test: Analgesic activity in FCA-induced guinea pig mechanical hyperalgesia model assessed as reversal of mechanical hyperalgesia at 10 mg/kg, po after 1 hr (reference value: 1.6 +/- 3.4%); assay type: functional
Cytochrome P450 2C9 = Cytochrome P450 2C9 (Homo sapiens, UniProt P11712); test: Inhibition of CYP2C9 (unknown origin); assay type: ADME
Cytochrome P450 2C9, sequence (P11712 whole entry): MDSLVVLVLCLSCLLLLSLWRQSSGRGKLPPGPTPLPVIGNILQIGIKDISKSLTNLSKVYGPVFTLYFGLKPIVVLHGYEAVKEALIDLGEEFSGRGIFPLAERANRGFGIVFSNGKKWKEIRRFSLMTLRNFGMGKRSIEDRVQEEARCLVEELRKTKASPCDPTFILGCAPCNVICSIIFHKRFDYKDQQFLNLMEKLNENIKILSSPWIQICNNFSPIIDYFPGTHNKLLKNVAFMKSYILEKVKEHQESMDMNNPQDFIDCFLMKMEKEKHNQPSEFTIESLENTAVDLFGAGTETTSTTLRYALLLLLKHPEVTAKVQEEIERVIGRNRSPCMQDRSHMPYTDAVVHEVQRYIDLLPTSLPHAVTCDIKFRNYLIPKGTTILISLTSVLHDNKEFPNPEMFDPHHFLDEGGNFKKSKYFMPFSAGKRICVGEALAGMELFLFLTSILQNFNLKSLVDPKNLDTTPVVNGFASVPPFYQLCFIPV

[6] = Antagonist activity at guinea pig recombinant TRPV4 expressed in CHO-K1 cells assessed as blockade of 250 nM 4alphaPDD-induced calcium mobilization by FLIPR assay; assay type: cell-based; conditions: Cavia porcellus
Cytochrome P450 2C19 = Cytochrome P450 2C19 (Homo sapiens, UniProt P33261); test: Inhibition of CYP2C19 (unknown origin); assay type: ADME
Cytochrome P450 2C19, sequence (P33261 whole entry): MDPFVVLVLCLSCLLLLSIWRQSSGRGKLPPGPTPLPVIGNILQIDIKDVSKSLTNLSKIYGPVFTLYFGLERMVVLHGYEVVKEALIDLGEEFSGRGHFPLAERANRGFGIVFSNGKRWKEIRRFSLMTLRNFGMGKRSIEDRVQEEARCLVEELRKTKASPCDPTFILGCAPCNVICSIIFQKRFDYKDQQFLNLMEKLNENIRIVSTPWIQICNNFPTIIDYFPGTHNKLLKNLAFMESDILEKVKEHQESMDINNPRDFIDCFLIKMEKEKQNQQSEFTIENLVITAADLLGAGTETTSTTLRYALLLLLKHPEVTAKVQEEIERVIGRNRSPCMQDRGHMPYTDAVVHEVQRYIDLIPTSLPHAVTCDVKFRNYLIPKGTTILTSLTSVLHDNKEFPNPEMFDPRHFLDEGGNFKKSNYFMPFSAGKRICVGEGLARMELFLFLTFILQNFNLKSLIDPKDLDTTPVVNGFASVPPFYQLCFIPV

[7] = Cmax in guinea pig at 1 mg/kg, po; assay type: ADME, organism-based, Cavia porcellus; parameters: dose 1 mg/kg, route oral; conditions: in vivo
[8] = target: Transient receptor potential cation channel subfamily V member 1 (Homo sapiens, UniProt Q8NER1); test: Antagonist activity at human TRPV1 expressed in CHO cells assessed as blockade of 100 nM capsaicin-induced calcium mobilization by FLIPR assay; assay type: cell-based
Transient receptor potential cation channel subfamily V member 1, sequence (Q8NER1 whole entry): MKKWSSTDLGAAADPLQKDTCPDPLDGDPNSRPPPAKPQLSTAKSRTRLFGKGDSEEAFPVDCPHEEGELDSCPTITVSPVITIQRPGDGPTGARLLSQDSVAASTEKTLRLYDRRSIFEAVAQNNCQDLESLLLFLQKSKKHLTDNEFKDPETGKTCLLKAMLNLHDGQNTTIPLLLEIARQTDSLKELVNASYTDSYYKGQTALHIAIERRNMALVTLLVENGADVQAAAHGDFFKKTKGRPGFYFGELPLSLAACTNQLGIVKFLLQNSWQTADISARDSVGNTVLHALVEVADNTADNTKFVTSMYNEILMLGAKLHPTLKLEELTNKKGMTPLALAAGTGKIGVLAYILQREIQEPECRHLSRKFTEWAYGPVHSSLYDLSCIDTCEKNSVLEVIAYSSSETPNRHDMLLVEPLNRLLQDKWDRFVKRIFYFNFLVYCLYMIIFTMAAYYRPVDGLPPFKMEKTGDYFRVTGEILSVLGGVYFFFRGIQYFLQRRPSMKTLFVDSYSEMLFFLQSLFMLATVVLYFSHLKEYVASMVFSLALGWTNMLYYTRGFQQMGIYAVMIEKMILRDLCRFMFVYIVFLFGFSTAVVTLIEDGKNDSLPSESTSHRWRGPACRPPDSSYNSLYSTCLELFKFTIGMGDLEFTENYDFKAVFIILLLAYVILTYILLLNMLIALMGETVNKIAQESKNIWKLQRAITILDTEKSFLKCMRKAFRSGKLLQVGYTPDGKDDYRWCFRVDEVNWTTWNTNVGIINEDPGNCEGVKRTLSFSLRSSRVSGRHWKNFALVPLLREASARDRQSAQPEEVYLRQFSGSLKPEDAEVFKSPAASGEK

Cavia porcellus [9] = test: Analgesic activity in FCA-induced guinea pig mechanical hyperalgesia model assessed as reversal of mechanical hyperalgesia at 30 mg/kg, po after 1 hr (reference value: 1.6 +/- 3.4%); assay type: functional
[10] = Protein binding in guinea pig plasma; assay type: ADME, cell-free, Cavia porcellus; conditions: read-out: PPB (converted)
[11] = Oral bioavailability in guinea pig at 1 mg/kg; assay type: ADME, organism-based, Cavia porcellus; conditions: in vivo
Cytochrome P450 2D6 = Cytochrome P450 2D6 (Homo sapiens, UniProt P10635); test: Inhibition of CYP2D6 (unknown origin); assay type: ADME
Cytochrome P450 2D6, sequence (P10635 whole entry): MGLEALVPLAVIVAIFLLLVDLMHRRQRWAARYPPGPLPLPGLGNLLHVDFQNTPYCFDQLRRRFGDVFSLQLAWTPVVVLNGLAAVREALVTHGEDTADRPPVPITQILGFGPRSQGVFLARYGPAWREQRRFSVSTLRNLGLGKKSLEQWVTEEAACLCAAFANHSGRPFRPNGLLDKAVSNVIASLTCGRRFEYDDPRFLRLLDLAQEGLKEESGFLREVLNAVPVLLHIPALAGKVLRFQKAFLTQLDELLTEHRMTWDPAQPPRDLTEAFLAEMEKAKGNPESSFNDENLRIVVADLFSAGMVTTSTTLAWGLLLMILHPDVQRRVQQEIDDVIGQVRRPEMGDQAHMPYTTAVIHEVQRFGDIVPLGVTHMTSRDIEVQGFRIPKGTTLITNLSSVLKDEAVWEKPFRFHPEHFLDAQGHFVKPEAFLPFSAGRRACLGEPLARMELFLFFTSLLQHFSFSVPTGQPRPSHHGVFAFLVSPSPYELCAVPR

[12] = Plasma concentration in FCA-induced guinea pig mechanical hyperalgesia model at 30 mg/kg, po after 1 hr; assay type: ADME, organism-based, Cavia porcellus
Cytochrome P450 3A4 = Cytochrome P450 3A4 (Homo sapiens, UniProt P08684); test: Inhibition of CYP3A4 (unknown origin); assay type: ADME
Cytochrome P450 3A4, sequence (P08684 whole entry): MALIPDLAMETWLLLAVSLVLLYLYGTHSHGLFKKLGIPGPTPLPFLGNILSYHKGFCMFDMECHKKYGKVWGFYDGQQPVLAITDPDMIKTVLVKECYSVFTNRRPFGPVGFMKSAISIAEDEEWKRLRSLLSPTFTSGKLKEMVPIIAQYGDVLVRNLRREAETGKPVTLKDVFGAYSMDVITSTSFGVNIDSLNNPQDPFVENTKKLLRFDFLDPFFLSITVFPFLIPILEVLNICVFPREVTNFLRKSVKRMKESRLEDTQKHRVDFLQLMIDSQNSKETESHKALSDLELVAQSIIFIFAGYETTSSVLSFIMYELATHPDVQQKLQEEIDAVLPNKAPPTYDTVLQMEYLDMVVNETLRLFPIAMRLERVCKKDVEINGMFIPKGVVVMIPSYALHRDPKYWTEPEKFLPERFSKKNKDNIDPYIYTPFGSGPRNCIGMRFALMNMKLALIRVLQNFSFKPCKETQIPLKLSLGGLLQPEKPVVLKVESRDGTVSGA

CHO-K1 = test: Selectivity ratio of IC50 for guinea pig recombinant TRPV4 expressed in CHO-K1 cells to IC50 for human recombinant TRPV4 expressed in CHO-K1 cells; assay type: cell-based
Cytochrome P450 1A2 = target: T2, Cytochrome P450 1A2 (Homo sapiens, UniProt P05177); test: Inhibition of CYP1A2 (unknown origin); assay type: ADME
T2 sequence (P05177 whole entry): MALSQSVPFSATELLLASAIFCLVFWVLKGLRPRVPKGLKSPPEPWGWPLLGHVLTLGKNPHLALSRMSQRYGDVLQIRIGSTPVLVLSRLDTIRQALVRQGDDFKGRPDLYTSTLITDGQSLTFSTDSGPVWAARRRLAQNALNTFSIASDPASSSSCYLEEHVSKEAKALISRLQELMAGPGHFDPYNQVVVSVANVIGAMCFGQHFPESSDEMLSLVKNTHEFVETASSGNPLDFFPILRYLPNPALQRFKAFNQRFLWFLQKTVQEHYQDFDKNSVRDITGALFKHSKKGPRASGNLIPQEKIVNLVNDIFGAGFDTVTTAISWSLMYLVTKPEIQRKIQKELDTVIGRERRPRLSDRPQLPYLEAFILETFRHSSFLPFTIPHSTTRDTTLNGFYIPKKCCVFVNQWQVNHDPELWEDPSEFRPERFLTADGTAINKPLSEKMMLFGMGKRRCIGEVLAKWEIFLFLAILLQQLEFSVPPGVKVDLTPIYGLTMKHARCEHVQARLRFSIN

[13] = Volume of distribution at steady state in guinea pig at 0.5 mg/kg, iv; assay type: ADME, organism-based, Cavia porcellus; conditions: in vivo, read-out: Vdss
Salmonella typhimurium = test: Genotoxicity in Salmonella typhimurium by Ames test; assay type: toxicity, organism-based; conditions: salmonella enterica subsp. enterica serovar typhimurium
[14] = target: T1, Transient receptor potential cation channel subfamily V member 4; test: Antagonist activity at human recombinant TRPV4 expressed in CHO-K1 cells assessed as blockade of hypotonic solution-induced calcium mobilization by FLIPR assay; assay type: cell-based
[15] = AUC in guinea pig at 1 mg/kg, po; assay type: ADME, organism-based, Cavia porcellus; conditions: in vivo
[16] = Plasma concentration in FCA-induced guinea pig mechanical hyperalgesia model at 10 mg/kg, po after 1 hr; assay type: ADME, organism-based, Cavia porcellus
[17] = target: Voltage-gated inwardly rectifying potassium channel KCNH2 (Homo sapiens, UniProt Q12809); test: Inhibition of human ERG
Voltage-gated inwardly rectifying potassium channel KCNH2, sequence (Q12809 whole entry): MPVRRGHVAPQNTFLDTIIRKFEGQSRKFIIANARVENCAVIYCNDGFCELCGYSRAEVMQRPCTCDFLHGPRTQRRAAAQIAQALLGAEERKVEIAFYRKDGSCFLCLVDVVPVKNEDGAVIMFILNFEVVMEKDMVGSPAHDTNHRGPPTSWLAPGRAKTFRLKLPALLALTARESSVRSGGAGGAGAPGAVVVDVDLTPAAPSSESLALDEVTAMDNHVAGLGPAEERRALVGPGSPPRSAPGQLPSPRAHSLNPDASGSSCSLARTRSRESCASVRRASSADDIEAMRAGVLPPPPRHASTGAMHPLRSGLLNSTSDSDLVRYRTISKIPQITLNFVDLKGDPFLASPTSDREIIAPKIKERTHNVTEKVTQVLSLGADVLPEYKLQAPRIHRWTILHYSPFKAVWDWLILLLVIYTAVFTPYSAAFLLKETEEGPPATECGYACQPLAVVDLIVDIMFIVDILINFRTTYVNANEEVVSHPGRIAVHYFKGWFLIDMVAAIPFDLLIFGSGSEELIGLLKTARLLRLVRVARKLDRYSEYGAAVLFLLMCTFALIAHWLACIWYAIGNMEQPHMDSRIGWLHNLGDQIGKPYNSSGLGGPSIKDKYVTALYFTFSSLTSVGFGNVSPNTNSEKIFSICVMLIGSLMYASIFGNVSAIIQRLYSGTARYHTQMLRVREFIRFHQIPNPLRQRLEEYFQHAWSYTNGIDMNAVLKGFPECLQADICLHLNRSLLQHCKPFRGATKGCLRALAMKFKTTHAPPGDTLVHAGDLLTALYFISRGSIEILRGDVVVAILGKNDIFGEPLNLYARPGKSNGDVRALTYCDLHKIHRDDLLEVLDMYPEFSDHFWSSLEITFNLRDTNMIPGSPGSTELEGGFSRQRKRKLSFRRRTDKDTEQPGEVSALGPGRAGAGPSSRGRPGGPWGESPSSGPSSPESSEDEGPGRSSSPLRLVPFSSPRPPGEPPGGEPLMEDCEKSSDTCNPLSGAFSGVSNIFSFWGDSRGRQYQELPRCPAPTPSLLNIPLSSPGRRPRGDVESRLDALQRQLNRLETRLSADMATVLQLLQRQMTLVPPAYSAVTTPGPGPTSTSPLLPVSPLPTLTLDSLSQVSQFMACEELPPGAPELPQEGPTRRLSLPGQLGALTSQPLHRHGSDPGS

[18] = Stability in guinea pig liver microsomes assessed as compound remaining after 30 mins in presence or absence of NADPH generating system at 37 degC; assay type: ADME, Cavia porcellus, microsome; conditions: read-out: Stability
[19] = Tmax in guinea pig at 1 mg/kg, po; assay type: ADME, organism-based, Cavia porcellus; conditions: in vivo
[20] = Half life in guinea pig at 0.5 mg/kg, iv; assay type: ADME, organism-based, Cavia porcellus; conditions: in vivo

## Cc1nc(C)c(-c2csc(Nc3ccc(C(=O)N4CCCCC4)cn3)n2)s1
[1]
  remaining at 0.5 h: 74.5%
[2]
  IC50: 37 nM
[3]
  solubility: 0.8 µM (≈ 0.32 µg/mL)

## COc1cccc(Nc2nc(-c3sc(C)nc3C)cs2)n1
[1]
  remaining at 0.5 h: 40%
[2]
  IC50: 23 nM

## Cc1nc(C)c(-c2csc(Nc3ccc(Br)cc3)n2)s1
[1]
  remaining at 0.5 h: 86.4%
[2]
  IC50: 34 nM

## Cc1nc(C)c(-c2csc(Nc3ccc(C(=O)N4C(C)CC(=O)CC4C)cn3)n2)s1 (centres undefined)
[1]
  remaining at 0.5 h: 52.8%
[2]
  IC50: 46 nM
[3]
  solubility: 45 µM (≈ 19.9 µg/mL)

## CCNC(=O)c1ccc(Nc2nc(-c3sc(C)nc3C)cs2)nc1
[1]
  remaining at 0.5 h: 81.4%
[2]
  IC50: > 10000 nM
[3]
  solubility: 2.8 µM (≈ 1.01 µg/mL)

## COc1cccnc1Nc1nc(-c2sc(C)nc2C)cs1
[1]
  remaining at 0.5 h: 30.9%
[2]
  IC50: > 10000 nM

## Cc1nc(C)c(-c2csc(Nc3ccccn3)n2)s1
[1]
  remaining at 0.5 h: 1.1%
[2]
  IC50: 10 nM

## Cc1nc(C)c(-c2csc(Nc3ccc(C(=O)NCc4ccc(Cl)cc4)cn3)n2)s1
[1]
  remaining at 0.5 h: 50.8%
[2]
  IC50: 200 nM
[3]
  solubility: 2.5 µM (≈ 1.14 µg/mL)

## Cc1nc(C)c(-c2csc(Nc3ccc(C#N)cn3)n2)s1
[1]
  remaining at 0.5 h: 65%
[2]
  IC50: 22 nM
[3]
  solubility: 1.7 µM (≈ 0.533 µg/mL)

## Cc1nc(C)c(-c2csc(Nc3ccc(NC(=O)c4ccc(Cl)cc4)cn3)n2)s1
[1]
  remaining at 0.5 h: 65.2%
[2]
  IC50: > 10000 nM
[3]
  solubility: 3.9 µM (≈ 1.72 µg/mL)

## Cc1nc(C)c(-c2csc(Nc3ccc(C(=O)N(C)c4ccc(Cl)cc4)cn3)n2)s1
[1]
  remaining at 0.5 h: 53.6%
[2]
  IC50: 50 nM
[3]
  solubility: 1.4 µM (≈ 0.638 µg/mL)

## Cc1nc(C)c(-c2csc(Nc3ccc(NS(=O)(=O)c4ccc(Cl)cc4)cn3)n2)s1
[1]
  remaining at 0.5 h: 81.5%
[2]
  IC50: 240 nM
[3]
  solubility: 1.2 µM (≈ 0.574 µg/mL)

## Cc1nc(C)c(-c2csc(Nc3ncccc3C#N)n2)s1
[1]
  remaining at 0.5 h: 1.3%
[2]
  IC50: 4300 nM

## Cc1nc(C)c(-c2csc(Nc3ccc(C(=O)N4C5COCC4CC(=O)C5)cn3)n2)s1
[4]
  clearance: 37.1 mL/min/kg
Cavia porcellus [5]
  Activity: 30.8%
Cytochrome P450 2C9
  INH: > 20 µM
[6]
  IC50: 27 nM
Cytochrome P450 2C19
  INH: > 20 µM
[7]
  Cmax: 59.2 ng/mL
[8]
  IC50: > 10000 nM
Cavia porcellus [9]
  Activity: 45.6%
[10]
  fraction unbound: 0.1
[11]
  bioavailability: 38.6%
Cytochrome P450 2D6
  INH: > 20 µM
[12]
  concentration at 1 h: 1940 ng/mL
Cytochrome P450 3A4
  INH: > 20 µM
[1]
  remaining at 0.5 h: 100%
CHO-K1
  Ratio IC50: 1.4
Cytochrome P450 1A2
  INH: > 20 µM
[13]
  Vd: 2.5 L/kg
Salmonella typhimurium
  Activity: Non-Toxic
[14]
  IC50: 3.1 nM
[15]
  AUC: 200 ng·h/mL
[16]
  concentration at 1 h: 515 ng/mL
[17]
  IC50: > 30000 nM
[3]
  solubility: > 50 µM
[18]
  remaining at 0.5 h: 84%
[19]
  Tmax: 30 min
[20]
  half-life: 66 min

## Cc1nc(C)c(-c2csc(Nc3cc(C#N)ccn3)n2)s1
[1]
  remaining at 0.5 h: 2.8%
[2]
  IC50: 240 nM

## COc1ccc(Nc2nc(-c3sc(C)nc3C)cs2)nc1
[1]
  remaining at 0.5 h: 10%
[2]
  IC50: 35 nM

## Cc1nc(C)c(-c2csc(Nc3ccncc3)n2)s1
[1]
  remaining at 0.5 h: 17.8%
[2]
  IC50: 3300 nM

## Cc1nc(C)c(-c2csc(Nc3cccnc3)n2)s1
[1]
  remaining at 0.5 h: 39.5%
[2]
  IC50: 490 nM

## Cc1nc(C)c(-c2csc(Nc3ccccc3)n2)s1
[1]
  remaining at 0.5 h: 22.8%
[2]
  IC50: 31 nM

## Cc1nc(C)c(-c2csc(Nc3ncccn3)n2)s1
[1]
  remaining at 0.5 h: 0.3%
[2]
  IC50: 10000 nM

## Cc1nc(C)c(-c2csc(Nc3ccc(C(=O)NC4CCCCC4)cn3)n2)s1
[1]
  remaining at 0.5 h: 55%
[2]
  IC50: 29 nM
[3]
  solubility: 1.8 µM (≈ 0.744 µg/mL)

## COc1ccnc(Nc2nc(-c3sc(C)nc3C)cs2)c1
[1]
  remaining at 0.5 h: 0.7%
[2]
  IC50: 410 nM

## Cc1nc(C)c(-c2csc(Nc3cccc(C#N)n3)n2)s1
[1]
  remaining at 0.5 h: 66.4%
[2]
  IC50: 100 nM

## Cc1nc(C)c(-c2csc(Nc3ccc(C(=O)O)cn3)n2)s1
[1]
  remaining at 0.5 h: 100%
[2]
  IC50: > 10000 nM
[3]
  solubility: > 50 µM

## Cc1nc(C)c(-c2csc(Nc3ccc(C(=O)N4C(C)CCCC4C)cn3)n2)s1 (centres undefined)
[1]
  remaining at 0.5 h: 2.1%
[2]
  IC50: 6.3 nM
[3]
  solubility: < 0.1 µM

## Cc1nc(C)c(-c2csc(Nc3ccc(S(=O)(=O)Nc4ccc(Cl)cc4)cn3)n2)s1
[1]
  remaining at 0.5 h: 83.4%
[2]
  IC50: 290 nM
[3]
  solubility: 4.5 µM (≈ 2.15 µg/mL)

## CCOC(=O)c1ccc(Nc2nc(-c3sc(C)nc3C)cs2)nc1
[1]
  remaining at 0.5 h: 13.5%
[2]
  IC50: 11 nM
[3]
  solubility: 3.4 µM (≈ 1.23 µg/mL)

## Cc1nc(C)c(-c2csc(Nc3ccc(C(=O)N4CCC(=O)CC4)cn3)n2)s1
[1]
  remaining at 0.5 h: 1.4%
[2]
  IC50: 620 nM
[3]
  solubility: > 50 µM

## Cc1nc(C)c(-c2csc(Nc3ccc(C(=O)N4C5CCC4CC(=O)C5)cn3)n2)s1
[1]
  remaining at 0.5 h: 81%
[3]
  solubility: 46.4 µM (≈ 20.4 µg/mL)

## Cc1nc(C)c(-c2csc(Nc3ccc(C(=O)Nc4ccc(Cl)cc4)cn3)n2)s1
[1]
  remaining at 0.5 h: 54.6%
[2]
  IC50: 9.5 nM
[3]
  solubility: 10.6 µM (≈ 4.68 µg/mL)
